The target of the test is T1, human mAChR M4 (Homo sapiens, UniProt P08173).
T1 construct: expressed in transfected cells; host or cells: CHO-K1 (American Type Culture Collection), stably expressing hM4 and Gqi5
T1 sequence (P08173 1-479): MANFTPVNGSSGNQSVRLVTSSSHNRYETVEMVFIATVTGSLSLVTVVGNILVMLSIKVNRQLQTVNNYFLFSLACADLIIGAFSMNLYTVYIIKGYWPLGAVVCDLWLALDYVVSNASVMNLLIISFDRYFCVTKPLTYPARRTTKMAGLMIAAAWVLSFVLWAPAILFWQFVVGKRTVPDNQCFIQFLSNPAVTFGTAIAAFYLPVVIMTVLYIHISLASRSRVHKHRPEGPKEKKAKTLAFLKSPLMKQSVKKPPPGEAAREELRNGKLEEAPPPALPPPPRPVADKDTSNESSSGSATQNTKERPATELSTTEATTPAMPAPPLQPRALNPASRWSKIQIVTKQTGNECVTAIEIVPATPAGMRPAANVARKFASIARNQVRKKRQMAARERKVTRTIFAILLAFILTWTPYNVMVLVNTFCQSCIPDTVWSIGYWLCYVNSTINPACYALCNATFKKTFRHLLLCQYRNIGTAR
As to the kind of experiment: mAChR M4 cell-based functional assay: calcium mobilization (Fluo-4, FDSS), potentiation of EC20 acetylcholine response in hM4-Gqi5 CHO-K1 cells. Conditions: human M4; for Emax at 30 µM: CHO-K1, % ACh maximum at 30 μM; for EC50: potentiation of EC20 acetylcholine response, calcium mobilization. An outline of the steps:
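Readout is the fluorescence-ratio rise at 1 Hz on FDSS, with PAM activity taken as concentration-dependent enhancement of the EC20 acetylcholine response, fitted four-parameter for EC50/Emax. hM4-Gqi5 CHO-K1 cells carried Fluo-4 AM dye; test compounds (11 points, 1:3) preceded EC20 acetylcholine additions at 144 s and 230 s.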

The structures appear in SMILES notation.

For the compound `Cc1cc2nccc(=O)n2nc1N1CCc2ncc(Nc3cncnc3C)cc2C1` [Compound 2-139, 8-methyl-7-(3-((4-methylpyrimidin-5-yl)amino)-7,8-dihydro-1,6-naphthyridin-6(5H)-yl)-4H-pyrimido[1,2-b]pyridazin-4-one], the Emax at 30 µM was found to be 97% and the EC50 was found to be 1.82 µM.

As for `Cc1cc(=O)n2nc(N3CCc4ncc(-c5ccccc5C(F)(F)F)cc4C3)c(C)c(C)c2n1` [Compound 1-277, 2,8,9-trimethyl-7-(3-(2-(trifluoromethyl)phenyl)-7,8-dihydro-1,6-naphthyridin-6(5H)-yl)-4H-pyrimido[1,2-b] pyridazin-4-one], the Emax at 30 µM came out at 57% and the EC50 is 1.12 µM.

For the compound `COc1ccccc1-c1cnc2c(c1)CN(c1nn3c(=O)ccnc3c(C)c1C)CC2` [Compound 1-344, 7-(3-(2-methoxyphenyl)-7,8-dihydro-1,6-naphthyridin-6(5H)-yl)-8,9-dimethyl-4H-pyrimido[1,2-b]pyridazin-4-one], the Emax at 30 µM was determined as 72% and the 50% effective concentration (EC50) is 0.663 µM.

Regarding `Cc1cc(=O)n2nc(N3CCc4ncc(N5CC6CCC(C5)O6)cc4C3)c(C)c(C)c2n1` [Compound 2-43, 7-(3-(8-oxa-3-azabicyclo[3.2.1]octan-3-yl)-7,8-dihydro-1,6-naphthyridin-6(5H)-yl)-2,8,9-trimethyl-4H-pyrimido[1,2-b]pyridazin-4-one], the Emax at 30 µM stood at 76% and the EC50 was found to be 0.31 µM.

Regarding `Cc1c(N2CCc3ncc(-c4cc(F)cc(F)c4F)cc3C2)nn2c(=O)ccnc2c1C` [Compound 1-346, 8,9-dimethyl-7-(3-(2,3,5-trifluorophenyl)-7,8-dihydro-1,6-naphthyridin-6(5H)-yl)-4H-pyrimido[1,2-b]pyridazin-4-one], the Emax at 30 µM was 67% and the EC50 worked out at 0.483 µM.

Turning to `Cc1ccnnc1-c1cnc2c(c1)CN(c1nn3c(=O)ccnc3cc1C)CC2` [Compound 1-356, 8-methyl-7-(3-(4-methylpyridazin-3-yl)-7,8-dihydro-1,6-naphthyridin-6(5H)-yl)-4H-pyrimido[1,2-b]pyridazin-4-one], the Emax at 30 µM was 70%.

Regarding `COc1cc(-c2cnc3c(c2)CN(c2nn4c(=O)ccnc4cc2C)CC3)ccn1` [Compound 1-38, 7-(3-(2-methoxypyridin-4-yl)-7,8-dihydro-1,6-naphthyridin-6(5H)-yl)-8-methyl-4H-pyrimido[1,2-b]pyridazin-4-one], the maximal effect (Emax) at 30 µM was 84% and the EC50 amounted to 0.338 µM.

On to `Cc1nc(S(=O)(=O)Nc2cnc3c(c2)CN(c2nn4c(=O)ccnc4cc2C)CC3)cs1` [Compound 2-119, 2-methyl-N-(6-(8-methyl-4-oxo-4H-pyrimido[1,2-b]pyridazin-7-yl)-5,6,7,8-tetrahydro-1,6-naphthyridin-3-yl)thiazole-4-sulfonamide], for which the Emax at 30 µM came out at 31%.

As to `Cc1cc(=O)n2nc(N3CCc4ncc(-c5cnc(C)s5)cc4C3)c(C)cc2n1` [Compound 1-31, 2,8-dimethyl-7-(3-(2-methylthiazol-5-yl)-7,8-dihydro-1,6-naphthyridin-6(5H)-yl)-4H-pyrimido[1,2-b]pyridazin-4-one], the Emax at 30 µM is 83% and the EC50 worked out at 0.104 µM.

`Cc1cc2nc(C(=O)NC3(C#N)CC3)cc(=O)n2nc1N1CCc2ncc(C(F)(F)F)cc2C1` [Compound 1-46, N-(1-cyanocyclopropyl)-8-methyl-4-oxo-7-(3-(trifluoromethyl)-7,8-dihydro-1,6-naphthyridin-6(5H)-yl)-4H-pyrimido[1,2-b]pyridazine-2-carboxamide]: the Emax at 30 µM was 99% and the EC50 turned out to be 0.118 µM.

Turning to `Cc1cc2nc(C3CC3)cc(=O)n2nc1N1CCc2ncc(C(F)(F)F)cc2C1` [Compound 1-27, 2-cyclopropyl-8-methyl-7-(3-(trifluoromethyl)-7,8-dihydro-1,6-naphthyridin-6(5H)-yl)-4H-pyrimido[1,2-b]pyridazin-4-one], the Emax at 30 µM was 76% and the EC50 is 0.038 µM.

Source of the values: patent US20250101041A1, “POSITIVE ALLOSTERIC MODULATORS OF THE MUSCARINIC ACETYLCHOLINE RECEPTOR M4” (Vanderbilt University, priority 2022, published 2025).
